Results published in patent US20250198977A1, “DETECTION METHOD, DRIED ALGAE MANUFACTURING METHOD, DRIED ALGAE, AND DRIED ALGAE QUALITY MANAGEMENT METHOD” (priority 2022, published 2025).

Legend:
[1] = system: L-dried matter of Cyanobium sp. NIES-981; experiment: Detection of chemical substances by delayed luminescence (DFI) of rehydrated L-dried matter; assay type: cell-based
Description: (§1) Various kinds of the L-dried matter obtained in the above-described cryo vial, and test water (water containing the chemical substances listed below at the concentrations (w/v) shown in Table 7) were prepared.
(§2) (metal mixed solution which was prepared by simulation based on formulation of a rock eluate from a core sample collected during a survey voyage of “Chikyu” by the Japan Agency for Marine-Earth Science and Technology; mainly containing lead and zinc (Yamagishi et al. Ecotoxicology (2018) 27:1303-1309)) • Copper • Zinc • Lead • Arsenic: in NIES-35, NIES-969, and NIES-2885, test water containing As(V) at 1 ppm (w/v) was also used for examination.
(§3) In a case of tests using freshwater algae, distilled water was used as the test water or control water, and in a case of tests using marine algae, filtered and sterilized seawater was used as the test water or control water.
(§4) Using a cuvette as a measurement container, 100 μL of the above-described cell suspension was dried to obtain 1 unit of the L-dried matter, and resuspended (rehydrated) in 3.5 mL of test water or control water.
(§5) After the rehydration, the L-dried matter and the test water or control water were rapidly and thoroughly mixed by pipetting to obtain a measurement sample (measurement object).
(§6) The sample was set in a weak luminescence measurement device (manufactured by Hamamatsu Photonics K.K., weak luminescence coefficient device, Type-7100). After exposure with excitation light from a light source attached to the device, delayed luminescence was measured immediately after a point of time of the rehydration (within 30 seconds), 15 minutes later, 30 minutes later, 60 minutes later, and 90 minutes later. The measurement time for each delayed luminescence was set to 10 seconds.
(§7) The sum of amounts of delayed luminescence (photon count) measured over 10 seconds was calculated and defined as the delayed fluorescence integral (DFI). In addition, for the sample after the rehydration, an absorbance at a wavelength of 600 nm with an optical path length of 1 cm was simultaneously measured. The DFI value per cell number of the L-dried matter was obtained by dividing the DFI by the value (DFI/OD600).

[2] = system: L-dried matter of Prochlorococcus sp. NIES-2885; experiment: as above; assay type: cell-based
Description: as §1, §2, §3, §4, §5, §6, §7

[3] = system: L-dried matter of Synechococcus sp. NIES-969; experiment: as above; assay type: cell-based
Description: as §1, §2, §3, §4, §5, §6, §7

[4] = system: L-dried matter of Raphidocelis subcapitata NIES-35; experiment: as above; assay type: cell-based
Description: as §1, §2, §3, §4, §5, §6, §7

[5] = system: L-dried matter of NIES-35; experiment: Detectable concentration by significant difference test, 15 min exposure of L-dried matter; assay type: cell-based, Raphidocelis subcapitata; details: exposed for 15 minutes
Text: The concentration of HA corresponds to a 100 million-fold dilution of a commercially available stock solution.

[6] = system: L-dried matter of NIES-981 on filter; experiment: Detection test for DCMU using L-dried matter on a filter; assay type: cell-based, Cyanobium sp.; details: DCMU 1 μM; 5 minutes after exposure; *P<0.01, N=4
Description: 25 to 50 mL of a culture solution of NIES-981 was passed through a filter (Whatman GF/F glass fiber filter paper (diameter: 47 mm)) set in a filtration unit, capturing the cells on the filter. After the filtration, 1 mL of a protective medium (Table 6) was immediately added dropwise onto the filter. The filter on which the cells were captured was subjected to low-temperature vacuum drying for 1 to 2 hours using a low-temperature vacuum drying device (manufactured by Forest Technology Systems Ltd., FLEXI-DRY) capable of performing L-drying. Subsequent steps were performed in the same manner as in the preparation of the L-dried sample in the vial described above, thereby obtaining L-dried matter of algae on the filter (FIG. 8).
The L-dried matter obtained on the filter was exposed to seawater or test water containing DCMU at a concentration of 1 μM, and the delayed luminescence was measured 5 minutes after the exposure.

[7] = system: L-dried matter of NIES-35; experiment: Quality evaluation of stored L-dried matter with DCMU; assay type: cell-based, Raphidocelis subcapitata; details: DCMU 1 μM, after 15 minutes
Description: The L-dried matter stored at 4° C. for 2 weeks was compared with the L-dried matter stored at 37° C. for 2 weeks (accelerated deterioration product). In each case, DCMU was added to the L-dried matter of NIES-35 at the same time as the rehydration, such that the final concentration was 1 μM (DCMU addition group), and the delayed luminescence after 15 minutes was measured. In addition, the delayed luminescence was measured in the control (non-addition group) in which DCMU was not added, following the same procedure.

[8] = system: same type of biocyanobacteria; experiment: 24-hour exposure test on the same type of cyanobacteria; assay type: cell-based; details: different bioassay method
Description: In a case where the half-effective concentration (EC50) was calculated, the zinc was 0.05 ppm (w/v) (FIG. 11) and the Cy metal mixed solution was 0.7% (w/v) (FIG. 12). Although it is not possible to simply compare the values because the values were obtained by different bioassay methods, the EC50 value during the zinc exposure was 0.07 ppm in a case where the 24-hour exposure test was performed on the same type of biocyanobacteria, and the EC50 value was similar to this value.

[9] = system: L-dried matter of NIES-981; experiment: Estimation of half-effective concentration (EC50) from delayed luminescence dose-response curve; assay type: cell-based, Cyanobium sp.; details: exposed simultaneously with rehydration; delayed luminescence after 15 minutes
Description: A dose-response curve of the L-dried matter with respect to a representative metal was created, and a half-effective concentration (EC50) was estimated. For the L-dried matter of NIES-981, zinc at 0 to 1 ppm (w/v) or Cy metal mixed solution at 0 to 10% (w/v) was exposed simultaneously with rehydration. After 15 minutes, the delayed luminescence was measured, and a dose-response curve was created.

[10] = system: L-dried matter of NIES-35; experiment: Detection test for ammonia nitrogen using L-dried matter; assay type: cell-based, Raphidocelis subcapitata; details: 60 minutes after addition; T-test, P<0.05, N=3
Description: To the L-dried matter of NIES-35 obtained in the cryo vial, a sample containing ammonia nitrogen at a concentration shown in FIG. 10 was added, and the delayed luminescence was measured 60 minutes after the addition.

[11] = Pb^2+ 1 ppm, first value → later value
[12] = Zn^2+ 0.5 ppm, first value → later value

## [Cu+2] [Cu^2+, Copper]
[1]; Cu^2+ 1 ppm
  comparison with control group (DFI value): higher
[2]; Cu^2+ 1 ppm
  comparison with control group (DFI value): lower
[3]; Cu^2+ 1 ppm
  comparison with control group (DFI value): lower
[4]; Cu^2+ 1 ppm
  comparison with control group (DFI value): lower

## CN(C)C(=O)Nc1ccc(Cl)c(Cl)c1 [DCMU, 3-(3,4-dichlorophenyl)-1,1-dimethylurea, reference compound]
[1]; DCMU 1 μM
  comparison with control group (DFI value): higher
[2]; DCMU 1 μM, first value → later value
  comparison with control group (DFI value): higher
[3]; DCMU 1 μM
  comparison with control group (DFI value): higher
[4]; DCMU 1 μM
  comparison with control group (DFI value): higher
[5]
  detectable concentration (significant difference test): ≤ 0.1 µM
[5]; conversion of 0.1 μM
  detectable concentration (significant difference test): approximately 0.02 ppm
[6]
  amount of delayed luminescence, DCMU versus seawater: significant difference
[7]; L-dried matter stored at 4° C. for 2 weeks
  delayed luminescence, DCMU-added group versus non-addition group: a difference was observed
[7]; L-dried matter stored at 37° C. for 2 weeks
  delayed luminescence, DCMU-added group versus non-addition group: no significant difference was observed

## NO [HA, Hydroxylamine, reference compound]
[1]; HA 50 μM
  comparison with control group (DFI value): lower
[2]; HA 50 μM
  comparison with control group (DFI value): lower
[3]; HA 50 μM
  comparison with control group (DFI value): lower
[4]; HA 50 μM
  comparison with control group (DFI value): lower
[5]
  detectable concentration (significant difference test): ≤ 0.0005 µM

## [Pb+2] [Pb^2+, Lead]
[1]; Pb^2+ 1 ppm
  comparison with control group (DFI value): higher
[2]; [11]
  comparison with control group (DFI value): lower
[3]; [11]
  comparison with control group (DFI value): lower
[4]; Pb^2+ 1 ppm
  comparison with control group (DFI value): higher

## [Zn+2] [Zn^2+, Zinc]
[1]; Zn^2+ 0.5 ppm
  comparison with control group (DFI value): higher
[1]; Zn^2+ 1 ppm
  comparison with control group (DFI value): higher
[2]; [12]
  comparison with control group (DFI value): lower
[2]; Zn^2+ 1 ppm, first value → later value
  comparison with control group (DFI value): lower
[3]; [12]
  comparison with control group (DFI value): lower
[3]; Zn^2+ 1 ppm
  comparison with control group (DFI value): lower
[4]; Zn^2+ 0.5 ppm
  comparison with control group (DFI value): higher
[4]; Zn^2+ 1 ppm
  comparison with control group (DFI value): higher
[8]
  EC50 value during the zinc exposure: 0.07 ppm
[9]
  half-effective concentration (EC50): 0.05 ppm (w/v)

## ammonia nitrogen [NH4—N]
[10]
  concentration at which a significant difference in the amount of delayed luminescence was confirmed: ≥ 10 mg/L
